In the experiment the target is T1, KDM4D (Homo sapiens, UniProt Q6B0I6).
T1 construct: KDM4AM1-L359,[38]; KDM4DM1-L359,[39]; KDM4EM1-R336,[30]; His6 (N); made in house; host or cells: Escherichia coli
T1 sequence (Q6B0I6 1-359): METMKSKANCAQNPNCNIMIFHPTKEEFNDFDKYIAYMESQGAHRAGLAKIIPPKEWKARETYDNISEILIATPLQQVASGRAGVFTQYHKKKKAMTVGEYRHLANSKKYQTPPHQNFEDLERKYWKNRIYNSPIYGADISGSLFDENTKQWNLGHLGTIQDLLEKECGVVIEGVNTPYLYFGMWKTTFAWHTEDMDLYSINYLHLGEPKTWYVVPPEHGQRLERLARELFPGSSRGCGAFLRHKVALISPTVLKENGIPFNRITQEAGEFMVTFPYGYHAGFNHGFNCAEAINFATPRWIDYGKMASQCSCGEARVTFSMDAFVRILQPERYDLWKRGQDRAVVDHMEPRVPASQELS
In words: formaldehyde dehydrogenase (FDH)-coupled demethylation assay, KDM4D. Format: biochemical. To be noted: FDH-coupled fluorescence assay, KDM4D (400 nM), H1 peptide 1–50 μM, HEPES pH 7.5; for Km / kcat (KDM4D): FAS 20 μM, LAA 200 μM, 2OG 200 μM, NAD+ 500 μM, FDH 2.0 μM, mean ± SEM (n = 3); for kcat/KM (KDM4D): catalytic efficiency. How it is done: Kinetic parameters were determined by recording the initial reaction rates of NADH production at varying histone peptide concentrations (Fig. S24 and S25). The overall catalytic efficiencies (as measured by kcat/KM) gave the following rank orders for KDM4D: H1.5K26me3 (0.192 μM^−1 min^−1) > H1.3K24me3 (0.066 μM^−1 min^−1) ≈ H1.2K26me3 (0.063 μM^−1 min^−1) > H1.4K25me3 (0.044 μM^−1 min^−1). […] These rank orders differ somewhat from the initial screening results. However, given the complexities of 2OG oxygenase catalysis and the relatively low catalytic efficiencies observed, such apparent discrepancies are not unexpected.[28] It is also noteworthy that, in some instances, increased KM values correlate with elevated kcat values, resulting in similar kcat/KM ratios, particularly for H1.4K25me3 with KDM4D and H1.2K25me3 with KDM4E.
Kinetic parameters for demethylation of N^ε-trimethylated H1 peptides by KDM4D and KDM4E (400 nM) measured using a formaldehyde dehydrogenase-coupled demethylation assay. H1 peptide (1–50 μM), FAS (20 μM), LAA (200 μM), 2OG (200 μM), NAD^+ (500 μM), KDM4 enzyme (0.8 μM) and FDH (2.0 μM) in HEPES buffer at pH 7.5. Each value is shown as mean ± SEM (n = 3)
Substrate Km values for KDM4 enzymes were determined using a reported formaldehyde dehydrogenase/NAD coupled enzyme assay that quantifies formaldehyde production.[30] In brief, DNA encoding for wild-type full-length formaldehyde dehydrogenase was synthesised (by GenScript) and cloned into the pET-28B vector. The resultant plasmid was then transformed into the Rosetta strain of Escherichia coli. Coupled enzyme-assays were carried out in black polystyrene 384-well non-binding surface microplates (Corning) and kinetic measurements were obtained using a PHERAstar FS plate reader (BMG Labtech) equipped with a 350 nm excitation and 460 nm emission optic module.[30] All steps were performed in the assay buffer (50 mM HEPES pH 7.5, 0.01% (v/v) Tween-20). Substrate mixtures were prepared freshly and contained FAS (20 μM), LAA (200 μM), 2OG (200 μM), NAD^+ (500 μM), and H1 peptide (1–50 μM); they were dispensed (25 μL final volume) in triplicate. Assays were initiated by plate reader injection of 25 μL of a mixture of KDM4 (0.8 μM) and formaldehyde dehydrogenase (FDH) (2.0 μM) in assay buffer (50 mM HEPES pH 7.5, 0.01% (v/v) Tween-20). Production of NADH was measured at 60 second intervals over 25 cycles. Kinetic parameters were determined from the reaction rate during the initial linear phase of formaldehyde production, and specific activities were calculated from a formaldehyde standard curve and fitted to the Michaelis–Menten equation using GraphPad Prism Version 5.0 (GraphPad software, La Jolla, CA, USA). Each assay was carried out in triplicate with independently prepared reaction mixtures.

Square brackets hold non-standard residues; d marks the D form. Ends that are not written are not given here. Lys(Me3) = C[N+](C)(C)CCCC[C@H](N)C(=O)O

Broadly, the Km is the substrate concentration at which the rate is half of its maximum. “KKKAAK[Lys(Me3)]AGGTPRKA [Peptide H1.2K26me3, 15-mer linker histone H1.2 residues 20-34 peptide, tri-methylated K26]”: the Km is 4.6 ± 0.41 µM, the “kcat (KDM4D)” value was 0.00483 ± 0.00017 s⁻¹ and the “kcat/KM (KDM4D)” value was found to be 1050 M⁻¹ s⁻¹.
On the same counts, the results for “KKKAR[Lys(Me3)]SAGAAKRKA [Peptide H1.4K25me3, 15-mer linker histone H1.4 residues 20-34 peptide, tri-methylated K25]” are 60 ± 24.3 µM, 0.0443 ± 0.0152 s⁻¹ and 733 M⁻¹ s⁻¹.
Taken in the same sequence, the figures for “KKKATK[Lys(Me3)]AAGAGAAK [Peptide H1.5K26me3, 15-mer linker histone H1.5 residues 20-34 peptide, tri-methylated K26]” were 7.51 ± 0.77 µM, 0.024 ± 0.0013 s⁻¹ and 3200 M⁻¹ s⁻¹.
Taken in the same sequence, the figures for “KKKA[Lys(Me3)]KAGATAGKRK [Peptide H1.3K24me3, 15-mer linker histone H1.3 residues 20-34 peptide, tri-methylated K24]” were 5.93 ± 0.69 µM, 0.0065 ± 0.00033 s⁻¹ and 1100 M⁻¹ s⁻¹.

The record behind these values is PMC12363342, “Investigating the N-terminal linker histone H1 subtypes as substrates for JmjC lysine demethylases” (RSC Chemical Biology, 2025).
